The results in this text go back to ChEMBL document CHEMBL1667811, “Influence of pKa on the biotransformation of indene H1-antihistamines by CYP2D6” (Bioorg Med Chem Lett, 2011).

One data set concerns the target hERG (KCNH2) (Homo sapiens, UniProt Q12809). Nature of the data set: Displacement of labeled dofetilide from human ERG at 3 uM. The settings on record: probe labeled dofetilide.
The next data set concerns the target Cytochrome P450 2D6 (Homo sapiens, UniProt P10635).
The next data set deals with Cytochrome P450 3A4 (Homo sapiens, UniProt P08684).
A further data set addresses Histamine H1 receptor (Homo sapiens, UniProt P35367). Nature of the data set: Binding affinity to histamine H1 receptor.
Data set [1] is described as follows: Drug uptake in rat brain at 1 mg/kg, iv after 4 hrs. It is filed as ADME, organism-based. More on the design: dose 1 mg/kg, route intravenous. The settings on record: read-out: Drug uptake.
Data set [2] in a line: Ratio of drug level in brain to plasma in rat at 1 mg/kg, iv after 4 hrs. It is filed as ADME, organism-based. The settings on record: read-out: BPR. More on the design: dose 1 mg/kg, route intravenous.

hERG (KCNH2), sequence (Q12809 whole entry): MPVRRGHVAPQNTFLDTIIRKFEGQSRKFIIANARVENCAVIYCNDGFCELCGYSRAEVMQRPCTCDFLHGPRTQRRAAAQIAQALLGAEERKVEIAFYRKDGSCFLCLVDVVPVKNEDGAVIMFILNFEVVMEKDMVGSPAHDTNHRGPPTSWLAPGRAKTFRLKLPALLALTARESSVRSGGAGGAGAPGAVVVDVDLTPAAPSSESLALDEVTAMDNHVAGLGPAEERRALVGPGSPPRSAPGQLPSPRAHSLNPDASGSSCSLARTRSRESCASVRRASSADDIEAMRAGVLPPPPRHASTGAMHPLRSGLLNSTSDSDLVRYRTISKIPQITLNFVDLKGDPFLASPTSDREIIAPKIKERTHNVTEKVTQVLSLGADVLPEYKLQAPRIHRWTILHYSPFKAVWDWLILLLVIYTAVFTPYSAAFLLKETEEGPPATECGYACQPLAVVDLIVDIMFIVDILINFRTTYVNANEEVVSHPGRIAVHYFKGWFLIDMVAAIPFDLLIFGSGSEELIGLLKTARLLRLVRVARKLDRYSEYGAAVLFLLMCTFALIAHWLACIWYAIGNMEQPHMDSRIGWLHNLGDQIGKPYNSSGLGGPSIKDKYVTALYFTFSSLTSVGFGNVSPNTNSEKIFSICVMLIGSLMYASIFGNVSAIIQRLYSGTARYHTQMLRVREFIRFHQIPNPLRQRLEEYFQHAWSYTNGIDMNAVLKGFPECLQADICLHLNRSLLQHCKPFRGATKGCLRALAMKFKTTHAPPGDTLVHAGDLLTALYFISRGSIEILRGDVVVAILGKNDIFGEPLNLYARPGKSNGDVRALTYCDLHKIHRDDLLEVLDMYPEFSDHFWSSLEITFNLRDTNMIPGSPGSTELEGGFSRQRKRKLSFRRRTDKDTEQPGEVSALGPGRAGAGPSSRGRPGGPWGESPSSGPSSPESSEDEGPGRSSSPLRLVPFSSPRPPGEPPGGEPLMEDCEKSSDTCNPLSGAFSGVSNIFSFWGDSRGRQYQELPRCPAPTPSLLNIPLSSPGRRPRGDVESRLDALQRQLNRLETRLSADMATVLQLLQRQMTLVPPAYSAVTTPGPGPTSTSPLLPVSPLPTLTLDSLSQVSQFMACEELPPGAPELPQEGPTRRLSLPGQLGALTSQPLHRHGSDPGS
Histamine H1 receptor, sequence (P35367 whole entry): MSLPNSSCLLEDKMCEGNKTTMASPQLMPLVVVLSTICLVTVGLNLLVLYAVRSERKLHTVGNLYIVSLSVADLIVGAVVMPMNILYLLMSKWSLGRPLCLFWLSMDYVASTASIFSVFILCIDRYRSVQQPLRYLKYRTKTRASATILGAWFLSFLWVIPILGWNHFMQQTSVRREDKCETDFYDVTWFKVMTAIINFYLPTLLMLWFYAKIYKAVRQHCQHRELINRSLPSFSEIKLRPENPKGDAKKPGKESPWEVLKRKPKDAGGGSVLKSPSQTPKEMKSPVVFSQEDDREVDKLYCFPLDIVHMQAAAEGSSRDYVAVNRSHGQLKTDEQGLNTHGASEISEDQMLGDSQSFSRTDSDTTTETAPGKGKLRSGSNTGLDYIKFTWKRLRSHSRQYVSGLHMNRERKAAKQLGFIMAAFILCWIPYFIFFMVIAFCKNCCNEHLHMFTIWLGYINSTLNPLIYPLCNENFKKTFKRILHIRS
Cytochrome P450 3A4, sequence (P08684 whole entry): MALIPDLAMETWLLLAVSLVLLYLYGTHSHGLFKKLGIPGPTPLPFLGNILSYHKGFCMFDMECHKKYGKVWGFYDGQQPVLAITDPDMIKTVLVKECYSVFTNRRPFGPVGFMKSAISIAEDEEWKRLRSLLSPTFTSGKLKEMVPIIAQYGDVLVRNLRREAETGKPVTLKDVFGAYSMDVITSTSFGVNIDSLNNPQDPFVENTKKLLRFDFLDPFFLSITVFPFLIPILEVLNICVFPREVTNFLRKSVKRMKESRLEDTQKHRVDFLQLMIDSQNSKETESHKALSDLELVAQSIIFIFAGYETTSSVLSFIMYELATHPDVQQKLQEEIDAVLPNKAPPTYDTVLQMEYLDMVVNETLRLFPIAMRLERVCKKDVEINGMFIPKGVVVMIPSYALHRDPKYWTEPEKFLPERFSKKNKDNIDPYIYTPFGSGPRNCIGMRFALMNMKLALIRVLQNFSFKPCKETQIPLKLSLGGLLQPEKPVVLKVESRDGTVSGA
Cytochrome P450 2D6, sequence (P10635 whole entry): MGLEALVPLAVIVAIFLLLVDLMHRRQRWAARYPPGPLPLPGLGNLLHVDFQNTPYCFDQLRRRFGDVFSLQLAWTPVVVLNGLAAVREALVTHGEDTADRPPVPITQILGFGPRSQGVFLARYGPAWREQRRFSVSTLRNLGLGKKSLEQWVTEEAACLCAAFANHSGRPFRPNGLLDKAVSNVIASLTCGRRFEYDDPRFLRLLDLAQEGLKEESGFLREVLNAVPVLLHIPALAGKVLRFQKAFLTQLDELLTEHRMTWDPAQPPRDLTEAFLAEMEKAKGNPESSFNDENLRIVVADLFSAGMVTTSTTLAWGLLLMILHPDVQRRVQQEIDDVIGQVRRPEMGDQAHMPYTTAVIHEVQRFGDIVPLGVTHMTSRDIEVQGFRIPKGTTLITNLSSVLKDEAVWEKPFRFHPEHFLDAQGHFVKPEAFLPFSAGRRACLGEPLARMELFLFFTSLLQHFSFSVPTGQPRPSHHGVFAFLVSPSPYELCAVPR

On to `C[C@H](C1=C(CCN(C)Cc2ccco2)Cc2ccccc21)c1cnccn1`, for which at 3 µM the inhibition on hERG (KCNH2) was 0%. Besides, the IC50 (in general, the concentration at which inhibition is half-maximal) on Cytochrome P450 2D6 is 4360 nM; on Cytochrome P450 3A4 it was 2750 nM. Moreover, the affinity on Histamine H1 receptor corresponds to a Ki of 8.1 nM.
As for `CCCN(C)CCC1=C(Cc2cnccn2)c2ccccc2C1`, 3 µM produced 0% inhibition at hERG (KCNH2). In addition, the IC50 on Cytochrome P450 2D6 came to 973 nM; against Cytochrome P450 3A4, 4040 nM. Also, the Ki (as a rule, the dissociation constant of the complex between target and ligand, obtained from inhibition or displacement) at Histamine H1 receptor is 41 nM.
As for `C[C@H](C1=C(CCN(C)CCC#N)Cc2ccccc21)c1cnccn1`, 3 µM produced 0% inhibition on hERG (KCNH2). For the same molecule, the IC50 against Cytochrome P450 2D6 and against Cytochrome P450 3A4 was greater than 10000 nM throughout. In addition, affinity on Histamine H1 receptor was put at a Ki of 109 nM.
`FC1CCN(CCC2=C(Cc3cnccn3)c3ccccc3C2)C1` (stereo unspecified): the concentration at 4 h in data set [1] worked out at 57 ng/g. Further, the inhibition (usually the percentage by which the read-out fell short of the control) at 3 µM at hERG (KCNH2) worked out at 0%. Besides, the IC50 against Cytochrome P450 2D6 is 4290 nM; against Cytochrome P450 3A4 it was greater than 10000 nM. The Kp at 4 h in data set [2] stood at 3.9. Moreover, the inhibitory constant (Ki) at Histamine H1 receptor worked out at 10.5 nM.
For `CN(CCF)CCC1=C(Cc2cnccn2)c2ccccc2C1`, at hERG (KCNH2), the inhibition at 3 µM stood at 0%. Also, the IC50 on Cytochrome P450 2D6 is 3090 nM; on Cytochrome P450 3A4 it was greater than 10000 nM.
Take `FC1(F)CN(CCC2=C(Cc3cnccn3)c3ccccc3C2)C1`: 3 µM produced 0% inhibition at hERG (KCNH2). For the same molecule, the IC50 against Cytochrome P450 2D6 is greater than 10000 nM. In addition, on Histamine H1 receptor, the Ki stood at 4610 nM.
The molecule `C[C@H](C1=C(CCN(C)Cc2cnccn2)Cc2ccccc21)c1cnccn1` had an inhibition at 3 µM at hERG (KCNH2) of 0%. The half-maximal inhibitory concentration (IC50) at Cytochrome P450 2D6 and against Cytochrome P450 3A4 was greater than 10000 nM each time. On Histamine H1 receptor, the Ki was 24.7 nM.
As to `C[C@H](C1=C(CCN(C)Cc2ncco2)Cc2ccccc21)c1cnccn1`, testing at 3 µM at hERG (KCNH2) gave an inhibition of 0%. Besides, the IC50 is greater than 10000 nM against Cytochrome P450 2D6 and 4840 nM at Cytochrome P450 3A4. The molecule further returned a Ki on Histamine H1 receptor of 162 nM.
As for `c1ccc2c(c1)CC(CCN1CCCC1)=C2Cc1cnccn1`, at hERG (KCNH2), the inhibition at 3 µM worked out at 0%. For the same molecule, the IC50 was 3380 nM against Cytochrome P450 2D6 and greater than 10000 nM on Cytochrome P450 3A4. The molecule further showed a Ki on Histamine H1 receptor of 2.8 nM.
At hERG (KCNH2), `c1ccc2c(c1)CC(CCN1CCC1)=C2Cc1cnccn1` registered an inhibition at 3 µM of 0%. Moreover, the IC50 against Cytochrome P450 2D6 was 8840 nM; against Cytochrome P450 3A4, greater than 10000 nM. Also, the Ki on Histamine H1 receptor stood at 4.3 nM.
`FC1(F)CCN(CCC2=C(Cc3cnccn3)c3ccccc3C2)C1`: on hERG (KCNH2), the inhibition at 3 µM was 0%. The IC50 against Cytochrome P450 2D6 amounted to 7530 nM; against Cytochrome P450 3A4, 1400 nM. For the same molecule, the Ki on Histamine H1 receptor is 249 nM.
`C[C@H](C1=C(CCN(C)CC#N)Cc2ccccc21)c1cnccn1` gave an inhibition at 3 µM at hERG (KCNH2) of 0%. Besides, the IC50 on Cytochrome P450 2D6 and at Cytochrome P450 3A4 was greater than 10000 nM in each case. At Histamine H1 receptor, this molecule came in with a Ki of 32 nM.
For `C[C@H](C1=C(CCN(C)CCC(F)(F)F)Cc2ccccc21)c1cnccn1`, testing at 3 µM at hERG (KCNH2) gave an inhibition of 0%. Moreover, the IC50 at Cytochrome P450 2D6 was 7220 nM; against Cytochrome P450 3A4, greater than 5000 nM. This molecule also showed an inhibition constant Ki at Histamine H1 receptor of 91 nM.
On to `C[C@H](C1=C(CCN(C)Cc2nccs2)Cc2ccccc21)c1cnccn1`, for which, at hERG (KCNH2), 3 µM produced 0% inhibition. Moreover, the figures for the IC50 against Cytochrome P450 2D6 and against Cytochrome P450 3A4 were greater than 10000 nM and 2820 nM, respectively. The same molecule had a Ki on Histamine H1 receptor of 48 nM.
`C[C@H](C1=C(CCN(C)Cc2ccccn2)Cc2ccccc21)c1cnccn1` yielded an inhibition at 3 µM on hERG (KCNH2) of 0%. For the same molecule, the IC50 against Cytochrome P450 2D6 was 5710 nM; against Cytochrome P450 3A4 it was 4780 nM. This molecule displayed a Ki on Histamine H1 receptor of 13.9 nM.
As for `CCN(C)CCC1=C(Cc2cnccn2)c2ccccc2C1`, 3 µM produced 0% inhibition on hERG (KCNH2). In addition, the values for the IC50 against Cytochrome P450 2D6 and at Cytochrome P450 3A4 were 4350 nM and greater than 10000 nM, respectively. Also, on Histamine H1 receptor, the affinity corresponds to a Ki of 7.2 nM.
The like results for `C[C@H](C1=C(CCN(C)CC2CCOCC2)Cc2ccccc21)c1cnccn1` were, in that order, 0%, 9370 nM, greater than 10000 nM and 15.2 nM.
The like results for `C[C@H](C1=C(CCN(C)CCF)Cc2ccccc21)c1cnccn1` were, in that order, 0%, 2610 nM, greater than 10000 nM and 13 nM.
The like results for `C[C@H](C1=C(CCN(C)Cc2nccn2C)Cc2ccccc21)c1cnccn1` were, in that order, 0%, 5680 nM, 1540 nM and 28 nM.
On to `C[C@H](C1=C(CCN(C)Cc2cccs2)Cc2ccccc21)c1cnccn1`, for which the inhibition at 3 µM on hERG (KCNH2) was 0%. In addition, the values for the IC50 at Cytochrome P450 2D6 and against Cytochrome P450 3A4 were 1430 nM and 1830 nM, respectively. Further, on Histamine H1 receptor, the affinity corresponds to a Ki of 6.7 nM.
As for `C[C@H](C1=C(CCN(C)Cc2ncc[nH]2)Cc2ccccc21)c1cnccn1`, on hERG (KCNH2), testing at 3 µM gave an inhibition of 0%. Besides, the IC50 against Cytochrome P450 2D6 was 5850 nM; at Cytochrome P450 3A4, 4420 nM. This molecule also yielded a Ki on Histamine H1 receptor of 8.8 nM.
For `C[C@H](C1=C(CCN(C)Cc2ccncc2)Cc2ccccc21)c1cnccn1`, the inhibition at 3 µM at hERG (KCNH2) is 0%. Further, at Cytochrome P450 2D6, the IC50 was 7960 nM. The molecule also displayed a Ki at Histamine H1 receptor of 4.9 nM.
For `FC1CN(CCC2=C(Cc3cnccn3)c3ccccc3C2)C1`, on hERG (KCNH2), the inhibition at 3 µM was found to be 0%. The figures for the IC50 against Cytochrome P450 2D6 and against Cytochrome P450 3A4 were 6470 nM and greater than 10000 nM, respectively. Moreover, the Ki at Histamine H1 receptor came out at 49 nM.
